Reference: patent USRE42700E1, “Induction of apoptosis in cancer cells” (Sanford-Burnham Medical Research Institute, priority 2001, dated 2011)
Peptide text beside a SMILES is read from it. * marks the point of attachment. Cbz = O=C(OCc1ccccc1)*; CH2F = FC*

Legend:
[1] = tested on: Bcl-XL in leukemic cells; assay: Bcl-XL cleavage by Western blot; format: cell-based, human; settings: 50 μM inhibitor with 1 μM 3-Cl-AHPC, 24 hours
Experimental: (§1) Western Blots: Western blots were performed according to the protocol of Sheikh, M. S., et al., (Oncogene, 9: 3407-3415 (1994)). Logarithmically growing cells were treated with 3-Cl-AHPC for various times and cells were harvested and lysed in Laemmli lysis buffer (0.5 M Tris-HCl, pH 6.8, 0.002M EDTA, 10% glycerol, 10% sodium dodecyl sulfate (SDS), and 5% β-mercaptoethanol). Protein lysates (50 μg/lane) were electrophoresed on 12% SDS-polyacrylamide gels and transferred to nitrocellulose membranes. Membranes were blocked with 5% nonfat dried milk in PBS/0.5% Tween 20 and then incubated with the appropriate antibodies. Horseradish peroxidase-conjugated rabbit anti-mouse IgG was used as the secondary antibody, and bands were developed using the Amersham ECL non-radioactive method.

[2] = tested on: ERK, p38 and JNK kinases in M07e and patient leukemic cells; assay: activation of MAPK pathways (phospho-p38, phospho-ERK, phospho-JNK Western blots); format: cell-based, human; settings: 50 μM inhibitor
Experimental: as §1

[3] = tested on: mouse mammary adenocarcinoma 16/C; assay: mouse mammary adenocarcinoma 16/C in syngeneic female C3H mice
Experimental: The ability of 3-Cl-AHPC to inhibit the in vivo growth of breast carcinoma cells was tested using syngeneic mouse mammary and human breast adenocarcinoma SCID xenograft models.

[4] = tested on: AML cells; assay: growth of AML cells in SCID mice; format: in vivo, mouse
[5] = tested on: ALL cells obtained from patients; settings: background section; cited from earlier work
[6] = tested on: RXRs; settings: cited from earlier work
[7] = biological target: RAR subtype α (Homo sapiens, UniProt P10276); settings: cited from earlier work
RAR subtype α, sequence (P10276 whole entry): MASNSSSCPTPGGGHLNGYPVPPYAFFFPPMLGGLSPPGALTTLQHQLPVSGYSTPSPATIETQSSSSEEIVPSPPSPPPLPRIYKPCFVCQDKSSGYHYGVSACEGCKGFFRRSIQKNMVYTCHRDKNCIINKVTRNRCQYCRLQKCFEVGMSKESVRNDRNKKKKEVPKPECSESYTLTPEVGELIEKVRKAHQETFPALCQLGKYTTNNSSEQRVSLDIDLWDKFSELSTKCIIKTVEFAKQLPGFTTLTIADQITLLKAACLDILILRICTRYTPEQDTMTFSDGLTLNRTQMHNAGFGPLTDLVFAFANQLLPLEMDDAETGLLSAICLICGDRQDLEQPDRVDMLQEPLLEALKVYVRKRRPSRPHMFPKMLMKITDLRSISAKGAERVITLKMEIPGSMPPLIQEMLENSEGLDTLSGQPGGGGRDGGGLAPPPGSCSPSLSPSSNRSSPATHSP

[8] = biological target: RARβ (Homo sapiens, UniProt P10826); settings: 1 μM; cited from earlier work
RARβ, sequence (P10826 whole entry, species assumed): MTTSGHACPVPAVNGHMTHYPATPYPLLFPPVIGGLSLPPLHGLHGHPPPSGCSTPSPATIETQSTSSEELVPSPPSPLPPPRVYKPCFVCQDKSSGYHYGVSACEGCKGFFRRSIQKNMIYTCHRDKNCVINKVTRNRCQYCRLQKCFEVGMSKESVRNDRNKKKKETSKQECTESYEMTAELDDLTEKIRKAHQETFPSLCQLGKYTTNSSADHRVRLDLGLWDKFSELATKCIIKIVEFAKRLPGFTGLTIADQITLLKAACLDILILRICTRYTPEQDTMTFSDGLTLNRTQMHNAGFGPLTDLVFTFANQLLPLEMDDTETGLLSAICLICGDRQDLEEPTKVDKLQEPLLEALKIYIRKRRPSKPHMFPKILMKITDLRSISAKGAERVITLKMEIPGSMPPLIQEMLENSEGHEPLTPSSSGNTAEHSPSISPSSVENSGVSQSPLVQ

[9] = biological target: RARγ (Homo sapiens, UniProt P13631); settings: 1 μM; cited from earlier work
RARγ, sequence (P13631 whole entry, species assumed): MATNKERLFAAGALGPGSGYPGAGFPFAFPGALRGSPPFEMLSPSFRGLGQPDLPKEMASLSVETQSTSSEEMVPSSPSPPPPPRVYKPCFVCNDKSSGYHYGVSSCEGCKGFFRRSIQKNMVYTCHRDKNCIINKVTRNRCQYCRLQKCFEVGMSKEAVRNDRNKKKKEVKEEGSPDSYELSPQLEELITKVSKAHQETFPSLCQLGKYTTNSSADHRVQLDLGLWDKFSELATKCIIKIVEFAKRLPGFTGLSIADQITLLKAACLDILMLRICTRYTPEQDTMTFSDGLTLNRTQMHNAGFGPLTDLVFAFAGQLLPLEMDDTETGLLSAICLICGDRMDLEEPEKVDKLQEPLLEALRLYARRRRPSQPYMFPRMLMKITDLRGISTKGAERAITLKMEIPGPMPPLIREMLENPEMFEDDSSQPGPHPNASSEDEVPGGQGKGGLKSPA

[10] = tested on: human leukemia cell line HL-60R; settings: cited from earlier work
[11] = tested on: cell line K562; settings: cited from earlier work
[12] = tested on: p38 and JNK kinases (HL-60R human leukemia cell line); settings: cited from earlier work
[13] = tested on: cell line ALL-REH; settings: ALL-REH cells; cited from earlier work
[14] = tested on: human acute megakaryocytic leukemia cell line M07e; assay: M07e cell growth / proliferation; format: cell-based; settings: varying concentrations over time
Experimental: (§2) Cell Growth: IL-3-transfected M07e cells have been described by Thacker, D. J., et al., Leukemia 8: 871-877 (1994). Cells were grown in RPMI supplemented with 5 percent heat-inactivated fetal bovine serum (FBS) and 25 μg/ml gentamycin in a […], 5% CO2, and 100% humidity environment. Leukemic cells were obtained from patients who met the criteria for the diagnosis of AML or CML in blast crisis (see Table 1). Studies were approved by the Wayne State University Institutional Review Board. Informed consent was obtained from all patients. Leukemic blasts from patients were isolated using Ficoll hypaque. Cells at the interface between plasma and red blood cells were diluted with sterile PBS, then layered over Ficoll hypaque (1.077 density), and the leukemic cells collected at the interface. The sample to be studied represented greater than 90% blasts. The patient leukemia samples were grown in RPMI medium supplemented with 10% FBS, gentamycin (25 μg/ml), IL-3 (20 ng/ml), SCF (25 ng/ml), GM-CSF (20 ng/ml) and G-CSF (20 ng/ml). Cell growth was assessed using a cell proliferation kit.

[15] = tested on: human acute megakaryocytic leukemia cell line M07e; assay: M07e apoptosis quantification; format: cell-based
Experimental: (§3) Apoptosis Quantification: Staining of apoptotic cells was performed as described by Gavreli, Y., et al., (J. Cell. Biol. 119: 493-501 (1992)) and Whitacre, C. M., et al., (Cancer Res. 55: 3697-3701 (1995)). After 3-Cl-AHPC treatment, cells were harvested, washed with PBS and resuspended at 1×10^6 cells/ml. Cell suspensions (50 μl) were stained with […] of acridine orange solution ([…]) in PBS in the dark. Cells displaying fragmented DNA were detected using a fluorescent microscope. Apoptotic cells were also detected using a kit. Cells that incorporated fluorescein labeled deoxyuridine triphosphate were detected using flow cytometry.

[16] = tested on: leukemic blasts from patients (AML or CML in blast crisis); assay: apoptosis in primary cultures of patient leukemic blasts; format: cell-based, human
Experimental: as §2, §3

[17] = tested on: Human Breast Cancer Cells; assay: apoptosis induction / cell death in breast cancer cells (all lines); format: cell-based; settings: 10 μM
[18] = tested on: acute promyelocytic leukemia (APL); settings: cited from earlier work
[19] = tested on: M07e or patient leukemia cells; assay: effect of kinase inhibitors on 3-Cl-AHPC-mediated apoptosis; format: cell-based, human; settings: at concentrations inhibiting p38 or ERK activation
Experimental: After 3-Cl-AHPC treatment, cells were harvested, washed with PBS and resuspended at 1×10^6 cells/ml. Cell suspensions (50 μl) were stained with 5 ml of acridine orange solution (100 mg/ml) in PBS in the dark. Cells displaying fragmented DNA were detected using a fluorescent microscope. Apoptotic cells were also detected using a kit. Cells that incorporated fluorescein labeled deoxyuridine triphosphate were detected using flow cytometry.

[20] = total dose 133 mg/kg, days 1, 2, 5-9
[21] = total dose 150 mg/kg, days 1, 2, 7-9

## O=C(O)/C=C/c1ccc(-c2ccc(O)c(C34CC5CC(CC(C5)C3)C4)c2)cc1Cl [Example 2, (E)-4-[3-(1-Adamantyl)-4-hydroxyphenyl]-2-chlorocinnamic acid]
other
  melting point: 276 to 278 °C

## COC(=O)C[C@H](NC(=O)[C@H](C)NC(=O)[C@@H](NC(=O)OCc1ccccc1)C(C)C)C(=O)CF [ZVAD-fmk] (Cbz-Val-Ala-Asp(OMe)-CH2F)
[1]
  effect on 3-Cl-AHPC-mediated Bcl-XL cleavage: inhibited Bcl-XL cleavage
[2]
  effect on 3-Cl-AHPC activation of JNK: not inhibited
  effect on 3-Cl-AHPC activation of p38 and ERK: prevent their activation by 3-Cl-AHPC

## O=C(O)c1ccc2cc(-c3ccc(O)c(C45CC6CC(CC(C6)C4)C5)c3)ccc2c1 [AHPN, 6-[3-(1-adamantyl)-4-hydroxyphenyl]-2-naphthalenecarboxylic acid]
[3]; total dose 99 mg/kg, days 1-9
  % body wt. loss: −4%
  Drug deaths: 0/5
  T/C %: 47%
[3]; [20]
  % body wt. loss: −11%
  Drug deaths: 0/5
  Log cell kill: 0.49
  T/C %: 39%
[3]; [21]
  % body wt. loss: −21%
  Drug deaths: 1/5
  Log cell kill: 0.63
  T/C %: 30%
[4]; five treated mice
  treated mice tumor-free more than 150 days (considered cured): one out of the five
[4]; treated SCID mice
  Tumor growth inhibition: 85.7%
  growth delay: 21 days
  log cell kill: 2.1
[5]
  apoptosis of ALL cells obtained from patients: induced apoptosis
[6]
  binding to the RXRs: does not bind
[7]
  binding and transactivation of RAR subtype α: extremely poor binder and transactivator
[8]
  binding and transactivation of RARβ: binds and transactivates
[9]
  binding and transactivation of RARγ: binds and transactivates
[10]
  apoptosis of HL-60R cells (lack functional RARs): results in apoptosis
[11]
  apoptosis of K562 cells (resistant to tRA): results in apoptosis
[12]; HL-60R human leukemia cell line
  p38 and JNK activation: p38 and JNK activation
[12]
  time to activation of the p38 and JNK kinases: ≤ 1 h
[13]
  caspase 3 activity: stimulation of caspase 3 activity

## CC1=C(/C=C/C(C)=C/C=C/C(C)=C/C(=O)O)C(C)(C)CCC1 [tRA, trans-retinoic acid, reference compound]
[14]
  inhibition of proliferation: did not significantly inhibit M07e proliferation
[15]
  inhibition of proliferation: did not significantly inhibit M07e proliferation (FIG. 2C) or induce apoptosis
[16]; 1 μM, 11 primary cultures
  induction of apoptosis: did not induce apoptosis
[16]; non-APL AML samples
  proliferation and apoptosis of primary human AML cultures (FIG. 13): had no effect
[17]
  killing of breast carcinoma cells: did not kill the cells
[18]
  patients achieving a complete remission: 90%

## Cc1cc(/C=C/C(=O)O)ccc1-c1ccc(O)c(C23CC4CC(CC(C4)C2)C3)c1 [Example 3, (E)-4-[3-(1-Adamantyl)-4-hydroxyphenyl]-3-methylcinnamic acid]
other
  melting point: 232 to 234 °C

## COc1cccc(-c2cc(=O)c3ccccc3o2)c1N [PD98059]
[19]
  effect on 3-Cl-AHPC-mediated apoptosis: did not inhibit or enhance 3-Cl-AHPC-mediated apoptosis

## Cc1cc(/C=C/C(=O)O)cc(C)c1-c1ccc(O)c(C23CC4CC(CC(C4)C2)C3)c1 [Example 4, (E)-4-[3-(1-Adamantyl)-4-hydroxyphenyl]-3,5-dimethylcinnamic acid]
other
  melting point: 127 to 129 °C
